# Results taken from US10385022B2, “3-amino-pyridines as GPBAR1 agonists” (HOFFMANN-LA ROCHE INC., priority 2011, dated 2019).
# Target: human GPBAR1 receptor (Homo sapiens (Human), UniProt Q8TDU6)
# Experiment: functional cAMP assay in CHO-dhfr(minus) cells expressing human GPBAR1 receptors
# Format: cell-based
# Details: CHO-dhfr(minus) cells expressing human GPBAR1, 30 min at 30° C.
# Summary of the method: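 CHO-dhfr- cells were transfected with human GPBAR1, and a clone was chosen by cAMP response to lithocholic acid. EC50 values come from the cAMP read-out; specificity was checked in non-transfected CHO cells.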
# Chain of human GPBAR1 receptor (Q8TDU6 whole entry): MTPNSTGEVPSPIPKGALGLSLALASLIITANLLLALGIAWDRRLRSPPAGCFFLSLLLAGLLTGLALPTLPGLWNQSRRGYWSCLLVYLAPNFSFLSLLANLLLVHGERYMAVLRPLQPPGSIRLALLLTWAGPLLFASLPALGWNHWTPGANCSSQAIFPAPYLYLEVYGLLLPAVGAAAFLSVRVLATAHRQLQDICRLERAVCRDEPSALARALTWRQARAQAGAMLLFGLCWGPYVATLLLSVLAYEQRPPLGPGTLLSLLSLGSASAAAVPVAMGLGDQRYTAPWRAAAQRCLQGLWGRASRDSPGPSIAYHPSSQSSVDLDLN
row,EC50 [nM],SMILES
1,53,"COc1cc(F)ccc1-c1ccncc1N(C)C(=O)c1cc(C(F)(F)F)cc(S(=O)(=O)C2COC2)c1 [Example 255, N-[4-(4-Fluoro-2-methoxy-phenyl)-pyridin-3-yl]-N-methyl-3-(oxetane-3-sulfonyl)-5-trifluoromethyl-benzamide]"
2,20,"COc1cc(F)ccc1-c1ccncc1N(C)C(=O)c1cc(C(F)(F)F)cc(S(=O)(=O)N2CCOCC2)c1 [Example 256, N-[4-(4-Fluoro-2-methoxy-phenyl)-pyridin-3-yl]-N-methyl-3-(morpholine-4-sulfonyl)-5-trifluoromethyl-benzamide]"
3,190,"COc1cc(F)ccc1-c1ccncc1N(C)C(=O)c1cc(SCCNS(N)(=O)=O)cc(C(F)(F)F)c1 [Example 261, N-[4-(4-fluoro-2-methoxyphenyl)pyridin-3-yl]-N-methyl-3-{[2-(sulfamoylamino)ethyl]-sulfanyl}-5-(trifluoromethyl)benzamide]"
4,231,"COc1cc(F)ccc1-c1ccncc1N(C)C(=O)c1cc(SCCNS(C)(=O)=O)cc(C(F)(F)F)c1 [Example 262, N-[4-(4-Fluoro-2-methoxy-phenyl)-pyridin-3-yl]-3-(2-methanesulfonylamino-ethylsulfanyl)-N-methyl-5-trifluoromethyl-benzamide]"
5,17,"COc1ccccc1-c1ccncc1N(C)C(=O)c1cc(C(F)(F)F)cc(S(C)(=O)=O)c1 [Example 263, 3-Methanesulfonyl-N-[4-(2-methoxy-phenyl)-pyridin-3-yl]-N-methyl-5-trifluoromethyl-benzamide]"
6,121,"COc1cc(F)ccc1-c1ccncc1N(C)C(=O)c1cc(C(F)(F)F)cc(S(=O)(=O)CCN2CCC2)c1 [Example 265, 3-(2-Azetidin-1-yl-ethanesulfonyl)-N-[4-(4-fluoro-2-methoxy-phenyl)-pyridin-3-yl]-N-methyl-5-trifluoromethyl-benzamide]"
7,177,"CCOC(=O)CCc1cc(C(=O)N(C)c2cnccc2-c2ccc(F)cc2OC)cc(C(F)(F)F)c1 [Example 266, 3-(3-{[4-(4-Fluoro-2-methoxy-phenyl)-pyridin-3-yl]-methyl-carbamoyl}-5-trifluoromethyl-phenyl)-propionic acid ethyl ester]"
8,94,"COc1cc(F)ccc1-c1ccncc1N(C)C(=O)c1cc(C(F)(F)F)cc(S(=O)(=O)CCNS(N)(=O)=O)c1 [Example 269, N-[4-(4-fluoro-2-methoxyphenyl)pyridin-3-yl]-N-methyl-3-{[2-(sulfamoylamino)ethyl]-sulfonyl}-5-(trifluoromethyl)benzamide]"
9,133,"COc1cc(F)ccc1-c1ccncc1N(C)C(=O)c1cc(C(F)(F)F)cc(S(=O)(=O)CCNS(C)(=O)=O)c1 [Example 270, N-[4-(4-Fluoro-2-methoxy-phenyl)-pyridin-3-yl]-3-(2-methanesulfonylamino-ethanesulfonyl)-N-methyl-5-trifluoromethyl-benzamide]"
10,162,"Cc1ccc(F)cc1-c1ccncc1N(C)C(=O)c1cc(C(F)(F)F)cc(S(C)(=O)=O)c1 [Example 276, N-[4-(5-Fluoro-2-methyl-phenyl)-pyridin-3-yl]-3-methanesulfonyl-N-methyl-5-trifluoromethyl-benzamide]"
11,268,"COc1cc(F)ccc1-c1ccncc1N(C)C(=O)c1cc(C(F)(F)F)cc(S(=O)(=O)C2CNC2)c1 [Example 280, 3-(Azctidine-3-sulfonyl)-N-[4-(4-fluoro-2-methoxy-phenyl)-pyridin-3-yl]-N-methyl-5-trifluoromethyl-benzamide]"
12,574,"COc1cc(F)ccc1-c1ccncc1N(C)C(=O)c1cc(CCC(N)=O)cc(C(F)(F)F)c1 [Example 281, 3-(2-Carbamoyl-ethyl)-N-[4-(4-fluoro-2-methoxy-phenyl)-pyridin-3-yl]-N-methyl-5-trifluoromethyl-benzamide]"
13,69,"COc1cc(F)ccc1-c1ccncc1N(C)C(=O)c1cc(C(F)(F)F)cc(S(=O)(=O)C2CN(S(C)(=O)=O)C2)c1 [Example 282, N-[4-(4-Fluoro-2-methoxy-phenyl)-pyridin-3-yl]-3-(1-methanesulfonyl-azetidine-3-sulfonyl)-N-methyl-5-trifluoromethyl-benzamide]"

# More lines, now with the values behind:
row,SMILES,EC50 [nM]
1,"COc1cc(F)ccc1-c1ccncc1N(C)C(=O)c1cc(Cl)cc(S(C)(=O)=O)c1 [Example 257, 3-Chloro-N-[4-(4-fluoro-2-methoxy-phenyl)-pyridin-3-yl]-5-methanesulfonyl-N-methyl-benzamide]",79
2,"CN(C(=O)c1cc(C(F)(F)F)cc(S(C)(=O)=O)c1)c1cnccc1-c1ccccc1OCc1ccccc1 [Example 258, N-[4-(2-Benzyloxy-phenyl)-pyridin-3-yl]-3-methanesulfonyl-N-methyl-5-trifluoromethyl-benzamide]",1860
3,"COc1cc(F)ccc1-c1ccncc1N(C)C(=O)c1cc(SCCN2CCC2)cc(C(F)(F)F)c1 [Example 259, 3-(2-Azetidin-1-yl-ethylsulfanyl)-N-[4-(4-fluoro-2-methoxy-phenyl)-pyridin-3-yl]-N-methyl-5-trifluoromethyl-benzamide]",134
4,"COc1cc(F)ccc1-c1ccncc1N(C)C(=O)c1cc(C2CC2)cc(S(C)(=O)=O)c1 [Example 260, 3-Cyclopropyl-N-[4-(4-fluoro-2-methoxy-phenyl)-pyridin-3-yl]-5-methanesulfonyl-N-methyl-benzamide]",153
5,"Cc1cc(-c2cc(F)ccc2C)c(N(C)C(=O)c2cc(C(F)(F)F)cc(S(C)(=O)=O)c2)cn1 [Example 264, N-[4-(5-Fluoro-2-methyl-phenyl)-6-methyl-pyridin-3-yl]-3-methanesulfonyl-N-methyl-5-trifluoromethyl-benzamide]",2410
6,"CN(C(=O)c1cc(C(F)(F)F)cc(S(C)(=O)=O)c1)c1cnccc1-c1ccc(F)cc1OCc1ccccc1 [Example 267, N-[4-(2-Benzyloxy-4-fluoro-phenyl)-pyridin-3-yl]-3-methanesulfonyl-N-methyl-5-trifluoromethyl-benzamide]",3460
7,"COc1cc(F)ccc1-c1ccncc1N(C)C(=O)c1cc(SC2CN(C(=O)OC(C)(C)C)C2)cc(C(F)(F)F)c1 [Example 268, 3-(3-{[4-(4-Fluoro-2-methoxy-phenyl)-pyridin-3-yl]-methyl-carbamoyl}-5-trifluoromethyl-phenylsulfanyl)-azetidine-1-carboxylic acid tert-butyl ester]",768
8,"Cc1ccccc1-c1ccncc1N(C)C(=O)c1cc(NCCO)cc(C(F)(F)F)c1 [Example 271, 3-(2-Hydroxy-ethylamino)-N-methyl-N-(4-o-tolyl-pyridin-3-yl)-5-trifluoromethyl-benzamide]",3130
9,"CN(C(=O)c1cc(C(F)(F)F)cc(S(C)(=O)=O)c1)c1cnccc1-c1ccccc1OC1COC1 [Example 272, 3-Methanesulfonyl-N-methyl-N-{4-[2-(oxetan-3-yloxy)-phenyl]-pyridin-3-yl}-5-trifluoromethyl-benzamide]",64
10,"COc1cc(F)ccc1-c1ccncc1N(CC1CCOC1)C(=O)c1cc(C(F)(F)F)cc(S(C)(=O)=O)c1 (centres unmarked) [Example 273, N-[4-(4-Fluoro-2-methoxy-phenyl)-pyridin-3-yl]-3-methanesulfonyl-N-(tetrahydro-furan-3-ylmethyl)-5-trifluoromethyl-benzamide]",1500
11,"CN(C(=O)c1cc(C(F)(F)F)cc(S(C)(=O)=O)c1)c1cnccc1-c1ccccc1OC(F)(F)F [Example 274, 3-Methanesulfonyl-N-methyl-N-[4-(2-trifluoromethoxy-phenyl)-pyridin-3-yl]-5-trifluoromethyl-benzamide]",34
12,"COc1cc(F)ccc1-c1ccncc1N(C)C(=O)c1cc(SC2CNC2)cc(C(F)(F)F)c1 [Example 275, 3-(Azetidin-3-ylsulfanyl)-N-[4-(4-fluoro-2-methoxy-phenyl)-pyridin-3-yl]-N-methyl-5-trifluoromethyl-benzamide]",1230
13,"CN(C(=O)c1cc(C(F)(F)F)cc(S(C)(=O)=O)c1)c1cnccc1-c1ccccc1OC1CCC1 [Example 277, N-[4-(2-Cyclobutoxy-phenyl)-pyridin-3-yl]-3-methanesulfonyl-N-methyl-5-trifluoromethyl-benzamide]",8
14,"CN(C(=O)c1cc(C(F)(F)F)cc(S(C)(=O)=O)c1)c1cnccc1-c1ccccc1Cl [Example 278, N-[4-(2-Chloro-phenyl)-pyridin-3-yl]-3-methanesulfonyl-N-methyl-5-trifluoromethyl-benzamide]",107
15,"CN(C(=O)c1cc(C(F)(F)F)cc(S(C)(=O)=O)c1)c1cnccc1-c1cccnc1OCC(F)(F)F [Example 279, 3-Methanesulfonyl-N-methyl-N-[2-(2,2,2-trifluoro-ethoxy)-[3,4′]bipyridinyl-3′-yl]-5-trifluoromethyl-benzamide]",77
16,"COc1cc(F)ccc1-c1ccncc1N(Cc1ncc(C)o1)C(=O)c1cc(C(F)(F)F)cc(S(C)(=O)=O)c1 [Example 283, N-[4-(4-Fluoro-2-methoxy-phenyl)-pyridin-3-yl]-3-methanesulfonyl-N-(5-methyl-oxazol-2-ylmethyl)-5-trifluoromethyl-benzamide]",2200
17,"COc1cc(-c2ccncc2N(C)C(=O)c2cc(C(F)(F)F)cc(S(C)(=O)=O)c2)c(F)cc1F [Example 284, N-[4-(2,4-Difluoro-5-methoxy-phenyl)-pyridin-3-yl]-3-methanesulfonyl-N-methyl-5-trifluoromethyl-benzamide]",353
18,"COc1ccc(F)c(-c2ccncc2N(C)C(=O)c2cc(C(F)(F)F)cc(S(C)(=O)=O)c2)c1F [Example 285, N-[4-(2,6-Difluoro-3-methoxy-phenyl)-pyridin-3-yl]-3-methanesulfonyl-N-methyl-5-trifluoromethyl-benzamide]",2900
19,"CS(=O)(=O)c1cc(C(=O)N(CC#N)c2cnccc2-c2ccccc2Cl)cc(C(F)(F)F)c1 [Example 286, N-[4-(2-Chloro-phenyl)-pyridin-3-yl]-N-cyanomethyl-3-methanesulfonyl-5-trifluoromethyl-benzamide]",379
